Experiments:
Type in all cases: cell-based
[1] = system: human pancreatic stem cells; assay: Cell clones from second digestion of pancreas tissue, DMEM-10% DFBS + GrNP supplementation; settings: for #clones after 1 passage, Method 1 / #clones after 1 passage, Method 2: 1 mM supplement, second digestion; for Enhancement of clonal cell proliferation: Method 1 and Method 2
Description: (§1) More specifically, after mincing of intact pancreatic tissue (harvested by the National Disease Research Interchange from donors within 4 hours of death), the pancreatic tissue was digested with liberase H (Roche). Two successive digestions of 20 and 30 minutes were performed at 37° C. in serum-free Dulbecco's modified Eagle's medium (DMEM) containing 1 mg/mL LIBERASE H. The cells and cell clusters released after each of these digestions were cultured.
In one embodiment of the methods described herein, termed herein as “Method 1,” twice digested pancreas digestion products can be cultured in DMEM supplemented with 10% dialyzed fetal bovine serum (DFBS).
(§2) In another embodiment of the methods described herein, termed herein as “Method 2,” the same two successive digestion procedure can be used, but the final tissue fragments remaining after the second digestion can also be cultured independently. For this embodiment of the methods, CMRL-1066 medium can be used as a second base culture medium in parallel with DMEM for all cultured pancreatic cell and tissue preparations. In one such example of Method 2, CMRL-1066 medium was supplemented with 10% DFBS and 2 mM L-glutamine and subdivided for the same GrNP supplementations as indicated for DMEM-10% DFBS medium in Method 1.

[2] = system: human pancreatic stem cells; assay: Cell clones from twice-digested fragments of pancreas tissue, CMRL-1066-10% DFBS + GrNP supplementation; settings: for Clone expansion rate (percent of isolated clones that could be expanded to full cultures) / #clones after 1 passage, Method 2: 1 mM supplement; for Clone expansion rate (percent of isolated clones that could be expanded to full cultures) / #clones after 1 passage, Method 2 / Increase in number of clones (primary cell colonies) over control: CMRL-1066-10% DFBS; for #clones after 1 passage, Method 2: twice-digested tissue fragments; for Increase in number of clones (primary cell colonies) over control: Method 2; for Increase in proportion of clones that could be further expanded to full cultures: CMRL-1066 medium, tissue fragments, versus control
Description: as §1, §2
Accordingly, in some embodiments of the methods described herein, the culture medium comprise Xn, Xs, or a combination thereof.

[3] = system: human pancreatic stem cells; assay: Population doubling analysis of pooled polyclonal strains (Method 2, CMRL-1066)
Description: Growth properties of human pancreatic stem cell strains. Four weeks after replating, clones were picked and expanded. Cells left after clonal isolations from the CMRL-1066 conditions were pooled and grown. They were trypsinized and counted on a regular basis, and population doublings were calculated accordingly. The number of clones detected for each condition is represented on the top two histograms. The bottom histogram represents the percentage of harvested clones that continued their expansion after isolation.
After isolating clonal cell colonies produced by the embodiment of the methods described herein termed Method 2 (Table 2) for expansion, the remaining unselected cell clones were pooled and expanded as well (i.e., polyclonal strains). Population doubling analyses were performed based on the passage of the expansion pool cultures.

Row | SMILES | #clones after 1 passage, Method 1 [1] | #clones after 1 passage, Method 2 [1] | Enhancement of clonal cell proliferation [1] | Clone expansion rate (percent of isolated clones that could be expanded to full cultures) [2] [%] | #clones after 1 passage, Method 2 [2] | Increase in number of clones (primary cell colonies) over control [2] | Increase in proportion of clones that could be further expanded to full cultures [2] [fold] | Cell expansion corresponding to the population doublings ([3]; polyclonal strains) [fold] | Population doublings of polyclonal strains ([3]; supplemented medium, expansion pool cultures) [population doublings]
1 | O=c1[nH]cnc2nc[nH]c12 [Hx, hypoxanthine] | 22 | 13 | more effective in enhancing clonal cell proliferation than Xn |  |  |  |  |  | 
2 | O=c1[nH]c(=O)c2[nH]cnc2[nH]1 [Xn, xanthine] | 3 | 5 | not statistically different than control | 13 | 54 | approximately 50% | 3.4 | ~1e+06 | 20
3 | O=c1[nH]c(=O)c2ncn([C@@H]3O[C@H](CO)[C@@H](O)[C@H]3O)c2[nH]1 [Xs, xanthosine] | 13 | 12 | more effective in enhancing clonal cell proliferation than Xn | 10 | 59 | approximately 50% | 2.6 |  | 

Reference: US20140193910A1, “METHODS FOR PRODUCING PANCREATIC PRECURSOR CELLS AND USES THEREOF” (priority 2011, published 2014)
